Source: BindingDB's records for doi:10.1021/bi1011157 (Albert Einstein College of Medicine, 2010)
pKi: −log10 of the molar value.

Biological target: T1, Pyrazinamidase/nicotinamidase PncA (Mycobacterium tuberculosis, UniProt Q50575)
T1 sequence (Q50575 whole entry): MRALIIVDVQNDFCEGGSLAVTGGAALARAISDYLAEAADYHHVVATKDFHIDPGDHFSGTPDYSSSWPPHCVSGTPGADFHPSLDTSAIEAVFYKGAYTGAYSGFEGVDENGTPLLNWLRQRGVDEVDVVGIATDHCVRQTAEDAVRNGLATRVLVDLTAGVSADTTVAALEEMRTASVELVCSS
Experiment: Enzyme Assay
Method: Enzyme activity measurement by a coupled assay. initial velocities for the reaction of MtPncA were determined by monitoring the loss of absorbance at 340 nm associated with oxidation of NADH to NAD by L-glutamic dehydrogenase (GDH) to produce glutamate from alpha-ketoglutarate.

| Compound | pKi |
| --- | --- |
| O=Cc1cnccn1 [PncA Inhibitor, 1] | 5.82 |
| O=Cc1cccnc1 [PncA Inhibitor, 2] | 6.52 |
| O=C(c1cccnc1)C(F)(F)F [PncA Inhibitor, 3] | 3.38 |
| OCc1cccnc1 [PncA Inhibitor, 4] | 4.20 |
| N#Cc1cccnc1 [PncA Inhibitor, 5] | 3.85 |
| N#Cc1cnccn1 [PncA Inhibitor, 6] | 4.21 |
